Source: patent US9199200B2, “Submerged membrane bioreactor system and biological methods for removing bisphenol compounds from municipal wastewater” (Centre de Recherche Industrielle de Québec (CRIQ), priority 2010, dated 2015)

What was measured:
[1] = Adsorption kinetics of BPA on inactivated sludge (pseudo-first order, pseudo-second order, Elovich); format: physicochemical
Experimental: According to the second set of assays, adsorption kinetic is evaluated using 200 mL of inactivated sludge at 15 g L^−1 and 2.0 mg/L of BPA is initially used. The flasks are shaken at 150 rpm at 22±2° C. and samples are taken at regular interval times (5, 10, 15, 20, 30, 40, 60, 80, 100, 120 min). Several appropriate models are reported in literature, but for the purposes of the experiments, three models are used, namely the Lagergren model (first order model) as described by Lagergren in Kung Sven. Veten. Hand 24 (1898) 1-39, the pseudo-second-order as described by Ho et al. in Process Biochemistry 34 (1999) 451-465, and the Elovich model as described in Chemical reviews (1960) 267-312.
Adsorption kinetic allows controlling the efficiency of the process and can be helpful to understand the mechanisms of the sorption process. To evaluate the sorption rate, the kinetic data are modeled using pseudo-first order and pseudo-second order equations. The kinetic models parameters are estimated by regression analysis method using Excel™ software. In accordance with Lagegren as cited above and with Bhattacharya et al., J. Env. Eng. ASCE 110 (1984) 110-122, pseudo-first order chemical sorption is described by the following equation (Eq. (15)):
This model is based on the assumption that the rate is proportional to the number of free sites. Integrating Eq. (15) with boundary conditions qt=0 at t=0 and qt=qt at t=t gives (Eq. (16)): ln(qe−qt)=ln qe−k1t (16)
In accordance with Ho et al. as cited above, for the rate constant of pseudo-second order chemical sorption, the following equation (Eq. (17)) has been also applied: […]
A third model, known as Elovich model described in Low et al. cited above, has been applied using the following equation (Eq. (19)): […]
If an amount (q0) of adsorbate is instantaneously adsorbed, after integration equation Eq. (20) becomes (Eq. (21)): […]

[2] = Thermodynamic parameters of BPA adsorption on inactivated sludge; format: physicochemical
Experimental: The third set of assays consisted of evaluating the thermodynamic parameters such as Gibbs free energy)(ΔG^0), enthalpy)(ΔH^0 and entropy)(ΔS^0 changes, which parameters allowed to determine whether BPA sorption on sludge was due to physisorption or chemisorption phenomenon or the combination of both phenomena. For that, Erlenmeyer flasks containing 200 mL of inactivated sludge at 15 g TSS L^−1 and 5 mgL^−1 of BPA are used. Mixing is achieved at 150 rpm and different temperatures (22±2, 30±2 and 40±2° C.) are respectively imposed for 2 h of experiment time.
In order to calculate whether the adsorption process is spontaneous or not, thermodynamics parameters including standard Gibbs free energy of adsorption (ΔadG^0), standard enthalpy of adsorption (ΔadH^0) and standard entropy change of) adsorption (ΔadS^0) have been considered. ΔadG^0 is calculated using the following equation (Eq. (22)): ΔadG^0=−RT ln Kd (22)
T is the temperature (K), and KD is the specific adsorption coefficient (equilibrium distribution coefficient). Relation between ΔadG^0, ΔH^0 and ΔadS^0 is expressed by the following equation (Eq. (23)): ΔadG^0=ΔadH^0−TΔadS^0 (23)
wherein ΔadH^0, ΔadS^0 are calculated from the slope and intercept of the plot of ln KD versus 1/T, respectively.
The adsorption tests are conducted at different temperatures ranging from 293 K to 313 K. At each temperature, the corresponding KD at fixed initial concentration of BPA is calculated and the corresponding Gibbs free energy change is deducted according to Eq. (22).

[3] = cited from earlier work
[4] = 2.0 mg/L BPA, 15 g/L inactivated sludge

## CC(C)(c1ccc(O)cc1)c1ccc(O)cc1 [BPA, 2,2-Bis(4-hydroxyphenyl)propane]
[1]
  q0 as share of the amount of BPA adsorbed at equilibrium (qe): 1.2%
[1]; [4]
  k1, pseudo-first order rate constant: 0.032 min⁻¹
  k2, pseudo-second order rate constant: 0.194 g/mg/min
  q0, amount of BPA instantaneously adsorbed (Elovich): 0.0013 mg/g
  qe, pseudo-first order (Lagergren): 0.109 mg/g
  qe, pseudo-second order: 0.132 mg/g
  α (Elovich): 24.98 g/mg
  α (Elovich), second parameter: 0.0040 mg/g/min
[2]; 293-313 K
  ΔadH^0: −82.121 KJmol^−1
  ΔadS^0: −0.257 KJmol^−1K^−1
[2]; 293 K
  ΔadG^0: -1.72 kcal/mol
[2]; 303 K
  ΔadG^0: -0.7216 kcal/mol
[2]; 313 K
  ΔadG^0: -0.5067 kcal/mol
[3]; Chen et al., submerged membrane bioreactor process
  Equilibrium adsorption time: 30 min
[3]; Clara et al.
  Freundlich coefficient log Kf: −0.614
[3]; Clara et al., conventional activated sludge reactor
  BPA adsorption equilibrium time: 2 h
